Test results taken from article PMC6199309, “A therapeutic approach to pantothenate kinase associated neurodegeneration” (Nature Communications, 2018).

Key:
[1] = biological target: T1, CDK2 (Homo sapiens, UniProt P24941); test: KINOMEscan; type: binding; settings: read-out: %Ctrl @ 10000nM
T1 construct: purchased DiscoverX KINOMEscan

[2] = biological target: T2, STK33 (Homo sapiens, UniProt Q9BYT3); test: KINOMEscan; type: binding; settings: read-out: %Ctrl @ 10000nM
T2 construct: purchased DiscoverX KINOMEscan

[3] = biological target: T3, PCTK2 (Homo sapiens, UniProt Q00537); test: KINOMEscan; type: binding; settings: read-out: %Ctrl @ 10000nM
T3 construct: purchased DiscoverX KINOMEscan

[4] = biological target: T4, IKK-beta (Homo sapiens, UniProt O14920); test: KINOMEscan; type: binding; settings: read-out: %Ctrl @ 10000nM
T4 construct: purchased DiscoverX KINOMEscan
T4 sequence (O14920 whole entry): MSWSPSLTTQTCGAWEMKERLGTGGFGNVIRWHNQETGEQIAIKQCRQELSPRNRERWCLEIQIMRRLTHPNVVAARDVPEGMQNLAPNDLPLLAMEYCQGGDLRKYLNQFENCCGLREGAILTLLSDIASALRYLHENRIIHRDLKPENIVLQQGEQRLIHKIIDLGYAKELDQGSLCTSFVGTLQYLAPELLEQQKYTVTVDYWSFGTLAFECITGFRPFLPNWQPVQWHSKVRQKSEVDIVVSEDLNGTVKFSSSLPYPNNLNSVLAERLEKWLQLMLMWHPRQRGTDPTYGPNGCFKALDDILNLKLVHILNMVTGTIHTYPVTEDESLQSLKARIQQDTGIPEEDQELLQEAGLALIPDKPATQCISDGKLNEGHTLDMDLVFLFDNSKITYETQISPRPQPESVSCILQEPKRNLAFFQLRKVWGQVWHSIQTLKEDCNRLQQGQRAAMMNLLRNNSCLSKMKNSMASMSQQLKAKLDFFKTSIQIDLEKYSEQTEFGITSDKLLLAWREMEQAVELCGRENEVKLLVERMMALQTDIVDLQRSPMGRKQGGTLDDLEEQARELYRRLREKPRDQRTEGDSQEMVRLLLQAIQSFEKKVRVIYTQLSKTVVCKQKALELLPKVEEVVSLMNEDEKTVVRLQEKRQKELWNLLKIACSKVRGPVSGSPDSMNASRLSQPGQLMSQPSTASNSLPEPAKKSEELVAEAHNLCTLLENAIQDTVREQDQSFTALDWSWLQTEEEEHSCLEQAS

[5] = biological target: T5, CSNK2A1 (Homo sapiens, UniProt P68400); test: KINOMEscan; type: binding; settings: read-out: %Ctrl @ 10000nM
T5 construct: purchased DiscoverX KINOMEscan

[6] = biological target: T6, PIP5K2B (Homo sapiens, UniProt P78356); test: KINOMEscan; type: binding; settings: read-out: %Ctrl @ 10000nM
T6 construct: purchased DiscoverX KINOMEscan

[7] = biological target: T7, PIK3CA (Homo sapiens, UniProt P42336); test: KINOMEscan; type: binding; settings: read-out: %Ctrl @ 10000nM
T7 construct: purchased DiscoverX KINOMEscan
T7 sequence (P42336 whole entry): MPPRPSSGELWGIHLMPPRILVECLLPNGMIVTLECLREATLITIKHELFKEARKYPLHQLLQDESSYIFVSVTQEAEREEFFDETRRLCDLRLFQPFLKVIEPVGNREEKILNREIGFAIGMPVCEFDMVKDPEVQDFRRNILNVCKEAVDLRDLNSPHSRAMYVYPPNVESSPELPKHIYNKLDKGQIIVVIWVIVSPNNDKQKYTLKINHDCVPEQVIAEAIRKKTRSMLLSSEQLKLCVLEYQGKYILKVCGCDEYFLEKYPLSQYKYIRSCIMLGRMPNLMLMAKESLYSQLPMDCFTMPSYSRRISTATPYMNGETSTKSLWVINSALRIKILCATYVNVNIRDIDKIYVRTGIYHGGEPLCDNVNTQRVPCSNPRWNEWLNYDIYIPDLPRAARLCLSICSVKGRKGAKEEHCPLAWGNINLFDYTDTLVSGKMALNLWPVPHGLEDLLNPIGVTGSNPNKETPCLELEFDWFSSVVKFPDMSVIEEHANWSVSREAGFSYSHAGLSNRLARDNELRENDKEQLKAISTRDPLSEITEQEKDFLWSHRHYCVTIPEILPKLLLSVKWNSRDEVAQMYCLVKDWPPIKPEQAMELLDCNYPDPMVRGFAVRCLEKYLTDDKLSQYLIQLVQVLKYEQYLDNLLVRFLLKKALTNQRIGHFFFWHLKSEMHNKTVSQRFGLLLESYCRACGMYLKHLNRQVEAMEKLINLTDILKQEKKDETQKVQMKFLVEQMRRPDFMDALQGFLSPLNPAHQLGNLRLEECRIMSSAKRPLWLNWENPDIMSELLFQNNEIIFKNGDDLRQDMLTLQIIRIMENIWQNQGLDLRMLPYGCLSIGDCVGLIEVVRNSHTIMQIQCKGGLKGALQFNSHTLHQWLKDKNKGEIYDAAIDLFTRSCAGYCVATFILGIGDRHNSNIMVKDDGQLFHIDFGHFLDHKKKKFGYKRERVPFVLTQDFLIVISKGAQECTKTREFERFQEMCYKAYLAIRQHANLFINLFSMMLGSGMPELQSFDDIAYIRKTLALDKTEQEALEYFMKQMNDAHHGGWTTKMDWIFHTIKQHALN

[8] = biological target: T8, EPHA4 (Homo sapiens, UniProt P54764); test: KINOMEscan; type: binding; settings: read-out: %Ctrl @ 10000nM
T8 construct: purchased DiscoverX KINOMEscan

[9] = biological target: T9, SRPK1 (Homo sapiens, UniProt Q96SB4); test: KINOMEscan; type: binding; settings: read-out: %Ctrl @ 10000nM
T9 construct: purchased DiscoverX KINOMEscan

[10] = biological target: T10, PRKCD (Homo sapiens, UniProt Q05655); test: KINOMEscan; type: binding; settings: read-out: %Ctrl @ 10000nM
T10 construct: purchased DiscoverX KINOMEscan

[11] = biological target: T11, CAMKK1 (Homo sapiens, UniProt Q8N5S9); test: KINOMEscan; type: binding; settings: read-out: %Ctrl @ 10000nM
T11 construct: purchased DiscoverX KINOMEscan

[12] = biological target: T12, CHEK1 (Homo sapiens, UniProt O14757); test: KINOMEscan; type: binding; settings: read-out: %Ctrl @ 10000nM
T12 construct: purchased DiscoverX KINOMEscan

[13] = Protein binding; settings: human
[14] = biological target: T13, LRRK2 (Homo sapiens, UniProt Q5S007); test: KINOMEscan; type: binding; settings: read-out: %Ctrl @ 10000nM
T13 construct: purchased DiscoverX KINOMEscan
T13 sequence (Q5S007 whole entry): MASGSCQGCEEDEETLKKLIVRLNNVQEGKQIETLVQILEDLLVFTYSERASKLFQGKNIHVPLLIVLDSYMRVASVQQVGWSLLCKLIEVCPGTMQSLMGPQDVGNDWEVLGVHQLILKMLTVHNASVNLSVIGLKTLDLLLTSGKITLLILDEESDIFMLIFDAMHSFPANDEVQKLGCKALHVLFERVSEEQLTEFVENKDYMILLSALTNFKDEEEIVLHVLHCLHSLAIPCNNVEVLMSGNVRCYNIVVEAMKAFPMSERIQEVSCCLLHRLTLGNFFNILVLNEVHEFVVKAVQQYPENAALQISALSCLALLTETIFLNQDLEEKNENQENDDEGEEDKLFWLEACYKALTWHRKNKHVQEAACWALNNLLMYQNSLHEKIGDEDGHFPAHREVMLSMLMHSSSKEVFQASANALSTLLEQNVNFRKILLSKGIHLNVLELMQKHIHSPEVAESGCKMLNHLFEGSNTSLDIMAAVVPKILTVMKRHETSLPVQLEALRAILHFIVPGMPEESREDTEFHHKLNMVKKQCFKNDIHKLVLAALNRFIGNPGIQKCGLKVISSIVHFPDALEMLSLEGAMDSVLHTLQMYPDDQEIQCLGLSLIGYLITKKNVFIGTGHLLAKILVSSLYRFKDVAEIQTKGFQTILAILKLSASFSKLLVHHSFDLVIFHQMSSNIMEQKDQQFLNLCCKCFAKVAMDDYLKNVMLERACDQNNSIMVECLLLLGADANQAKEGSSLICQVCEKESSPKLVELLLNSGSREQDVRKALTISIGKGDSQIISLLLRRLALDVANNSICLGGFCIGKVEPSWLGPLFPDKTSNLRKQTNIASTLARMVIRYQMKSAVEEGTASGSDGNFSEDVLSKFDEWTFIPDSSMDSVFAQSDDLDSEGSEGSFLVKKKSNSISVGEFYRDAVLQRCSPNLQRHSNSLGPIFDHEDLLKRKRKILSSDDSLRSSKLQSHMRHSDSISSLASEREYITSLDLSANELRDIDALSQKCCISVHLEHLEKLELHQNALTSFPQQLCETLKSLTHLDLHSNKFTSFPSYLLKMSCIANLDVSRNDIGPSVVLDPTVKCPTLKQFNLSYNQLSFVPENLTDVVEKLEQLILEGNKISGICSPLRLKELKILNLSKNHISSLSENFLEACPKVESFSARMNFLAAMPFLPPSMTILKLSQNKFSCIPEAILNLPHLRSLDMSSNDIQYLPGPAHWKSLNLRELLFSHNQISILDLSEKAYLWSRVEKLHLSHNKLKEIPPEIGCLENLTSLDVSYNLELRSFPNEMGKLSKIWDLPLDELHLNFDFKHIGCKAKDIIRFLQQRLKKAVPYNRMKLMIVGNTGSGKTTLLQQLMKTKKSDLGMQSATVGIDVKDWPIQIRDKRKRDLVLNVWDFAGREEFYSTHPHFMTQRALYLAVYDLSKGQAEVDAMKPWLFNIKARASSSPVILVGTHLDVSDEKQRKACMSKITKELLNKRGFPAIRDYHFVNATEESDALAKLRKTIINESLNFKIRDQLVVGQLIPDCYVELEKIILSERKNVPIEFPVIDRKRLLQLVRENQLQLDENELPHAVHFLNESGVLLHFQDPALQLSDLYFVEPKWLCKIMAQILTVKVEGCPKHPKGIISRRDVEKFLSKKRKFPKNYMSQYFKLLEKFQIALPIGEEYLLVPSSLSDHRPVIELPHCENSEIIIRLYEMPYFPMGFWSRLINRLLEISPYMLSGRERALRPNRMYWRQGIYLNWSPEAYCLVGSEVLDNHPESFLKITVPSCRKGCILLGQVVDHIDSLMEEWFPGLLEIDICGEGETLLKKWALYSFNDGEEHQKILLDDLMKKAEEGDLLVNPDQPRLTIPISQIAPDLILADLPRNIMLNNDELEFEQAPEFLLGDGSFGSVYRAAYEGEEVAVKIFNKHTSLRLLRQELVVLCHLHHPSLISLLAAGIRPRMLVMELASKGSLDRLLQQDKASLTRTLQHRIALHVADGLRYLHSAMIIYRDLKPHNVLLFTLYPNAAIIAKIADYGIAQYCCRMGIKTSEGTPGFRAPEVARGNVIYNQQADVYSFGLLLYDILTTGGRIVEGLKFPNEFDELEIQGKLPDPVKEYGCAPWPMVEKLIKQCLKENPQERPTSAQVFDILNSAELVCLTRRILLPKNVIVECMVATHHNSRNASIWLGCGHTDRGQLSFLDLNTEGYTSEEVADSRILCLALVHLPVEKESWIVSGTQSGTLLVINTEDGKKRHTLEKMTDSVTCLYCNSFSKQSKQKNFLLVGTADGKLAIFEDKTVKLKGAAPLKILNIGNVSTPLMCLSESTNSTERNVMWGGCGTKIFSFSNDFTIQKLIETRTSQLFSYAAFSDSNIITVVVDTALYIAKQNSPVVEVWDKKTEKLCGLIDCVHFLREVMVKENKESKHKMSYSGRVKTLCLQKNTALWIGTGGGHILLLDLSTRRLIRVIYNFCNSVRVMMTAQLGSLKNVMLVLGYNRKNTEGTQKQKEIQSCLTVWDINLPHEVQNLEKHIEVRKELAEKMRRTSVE

[15] = system: tissue CoA; test: Mouse efficacy testing: tissue CoA levels; type: in vivo
Experimental: C57Bl6/J mice (8-week-old) were purchased from Jackson Laboratory and were fed either a regular diet (autoclavable rodent breeder diet, Labdiet) or an isocaloric, pantothenic acid-supplemented diet (1000 ppm) for 2 weeks prior to the experiment. The mice were maintained at room temperature 72° ± 2 °F, humidity 50 ± 10% and a 14 h light /10 h dark cycle with the dark cycle starting at 18:00 h. Water was supplied ad libitum. The mice were randomized into the treatment arms to achieve a normal weight distribution. […] The mice were euthanized and tissues harvested 4 h after the last dose. The tissue samples were used for total CoA, pantothenate and pantazine determinations. Blood was collected from euthanized animals, plasma or serum was prepared and stored frozen until analysis. Organs, including liver, forebrain, and hindbrain were quickly excised from euthanized animals and immediately flash frozen in liquid N2 or immersed in RNAlater® (Qiagen) overnight prior to freezing. Forebrain and hindbrain regions were identified. Total CoA was determined using 20–50 mg of tissue (liver, forebrain or hindbrain) homogenized in 2 ml of 1 mM KOH. The pH was adjusted to 12.0 with 0.25 M KOH, and incubated at 55 °C for 2 h[23]. The pH of the sample was adjusted to 8.0, and the samples were derivatized with monobromobimane (mBBr) and analyzed by HPLC equipped with a fluorescence detector.

[16] = biological target: T14, PIK3CA(E545A) (Homo sapiens, UniProt P42336, E545A); test: KINOMEscan; type: binding; settings: read-out: %Ctrl @ 10000nM
T14 construct: purchased DiscoverX KINOMEscan
T14 sequence (P42336 whole entry E545A): as the sequence (P42336 whole entry) above, with E545A counted along it

[17] = biological target: T15, SgK110 (Homo sapiens, UniProt P0C264); test: KINOMEscan; type: binding; settings: read-out: %Ctrl @ 10000nM
T15 construct: purchased DiscoverX KINOMEscan

[18] = biological target: T16, FGFR3 (Homo sapiens, UniProt P22607); test: KINOMEscan; type: binding; settings: read-out: %Ctrl @ 10000nM
T16 construct: purchased DiscoverX KINOMEscan

[19] = biological target: T17, MET(Y1235D) (Homo sapiens, UniProt P08581, Y1235D); test: KINOMEscan; type: binding; settings: read-out: %Ctrl @ 10000nM
T17 construct: purchased DiscoverX KINOMEscan

[20] = biological target: T18, PCTK3 (Homo sapiens, UniProt Q07002); test: KINOMEscan; type: binding; settings: read-out: %Ctrl @ 10000nM
T18 construct: purchased DiscoverX KINOMEscan

[21] = biological target: T19, PIP5K1C (Homo sapiens, UniProt O60331); test: KINOMEscan; type: binding; settings: read-out: %Ctrl @ 10000nM
T19 construct: purchased DiscoverX KINOMEscan

[22] = biological target: T20, GRK4 (Homo sapiens, UniProt P32298); test: KINOMEscan; type: binding; settings: read-out: %Ctrl @ 10000nM
T20 construct: purchased DiscoverX KINOMEscan

[23] = biological target: T21, YANK1 (Homo sapiens, UniProt Q8WU08); test: KINOMEscan; type: binding; settings: read-out: %Ctrl @ 10000nM
T21 construct: DNA label for qPCR (T7 phage fusion or DNA tag); purchased DiscoverX scanMAX; host or cells: E. coli BL21-derived (T7 phage) or HEK-293

[24] = biological target: T22, MAPKAPK2 (Homo sapiens, UniProt P49137); test: KINOMEscan; type: binding; settings: read-out: %Ctrl @ 10000nM
T22 construct: purchased DiscoverX KINOMEscan

[25] = biological target: T23, LIMK2 (Homo sapiens, UniProt P53671); test: KINOMEscan; type: binding; settings: read-out: %Ctrl @ 10000nM
T23 construct: purchased DiscoverX KINOMEscan

[26] = biological target: T24, TLK1 (Homo sapiens, UniProt Q9UKI8); test: KINOMEscan; type: binding; settings: read-out: %Ctrl @ 10000nM
T24 construct: purchased DiscoverX KINOMEscan

[27] = biological target: T25, JAK2(JH1domain-catalytic) (Homo sapiens, UniProt O60674); test: KINOMEscan; type: binding; settings: read-out: %Ctrl @ 10000nM
T25 construct: JAK2(JH1domain-catalytic); purchased DiscoverX KINOMEscan

[28] = biological target: T26, PHKG1 (Homo sapiens, UniProt Q16816); test: KINOMEscan; type: binding; settings: read-out: %Ctrl @ 10000nM
T26 construct: purchased DiscoverX KINOMEscan

[29] = biological target: T27, CSNK1G3 (Homo sapiens, UniProt Q9Y6M4); test: KINOMEscan; type: binding; settings: read-out: %Ctrl @ 10000nM
T27 construct: purchased DiscoverX KINOMEscan

[30] = biological target: T28, TNIK (Homo sapiens, UniProt Q9UKE5); test: KINOMEscan; type: binding; settings: read-out: %Ctrl @ 10000nM
T28 construct: purchased DiscoverX KINOMEscan

[31] = biological target: T29, TTK (Homo sapiens, UniProt P33981); test: KINOMEscan; type: binding; settings: read-out: %Ctrl @ 10000nM
T29 construct: DNA label for qPCR (T7 phage fusion or DNA tag); purchased DiscoverX scanMAX; host or cells: E. coli BL21-derived (T7 phage) or HEK-293

[32] = biological target: T30, ADCK4 (Homo sapiens, UniProt Q96D53); test: KINOMEscan; type: binding; settings: read-out: %Ctrl @ 10000nM
T30 construct: purchased DiscoverX KINOMEscan

[33] = biological target: T31, CDK11 (Homo sapiens, UniProt Q9BWU1); test: KINOMEscan; type: binding; settings: read-out: %Ctrl @ 10000nM
T31 construct: purchased DiscoverX KINOMEscan
T31 sequence (Q9BWU1 whole entry): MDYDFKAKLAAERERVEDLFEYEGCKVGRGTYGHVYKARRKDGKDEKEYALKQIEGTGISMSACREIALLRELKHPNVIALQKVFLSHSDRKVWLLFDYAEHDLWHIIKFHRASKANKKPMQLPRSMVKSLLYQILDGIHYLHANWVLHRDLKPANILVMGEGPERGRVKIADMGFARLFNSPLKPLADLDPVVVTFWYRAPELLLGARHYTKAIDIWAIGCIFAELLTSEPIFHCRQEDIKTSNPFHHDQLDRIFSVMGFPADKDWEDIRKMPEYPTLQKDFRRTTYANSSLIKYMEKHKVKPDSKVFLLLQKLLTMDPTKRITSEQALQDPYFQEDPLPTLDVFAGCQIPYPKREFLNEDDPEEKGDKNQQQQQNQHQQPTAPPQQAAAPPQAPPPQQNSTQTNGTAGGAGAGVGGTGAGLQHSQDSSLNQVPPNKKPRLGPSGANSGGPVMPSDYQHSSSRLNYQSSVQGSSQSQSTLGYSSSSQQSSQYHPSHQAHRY

With `CC(C)c1ccc(CC(=O)N2CCN(c3ccc(C#N)nn3)CC2)cc1` [PZ-2891, 6-(4-(2-(4-isopropylphenyl)acetyl)piperazin-1-yl)pyridazine-3-carbonitrile] as the molecule, how does the remaining binding at 10 µM [1] read?
Its remaining binding at 10 µM is 87%.

What about the remaining binding at 10 µM [2] of the same molecule?
The remaining binding at 10 µM was 90%.

What about the remaining binding at 10 µM [3] of the same molecule?
Its remaining binding at 10 µM is 95%.

And the remaining binding at 10 µM [4]?
Its remaining binding at 10 µM is 100%.

What about the remaining binding at 10 µM [5] of the same molecule?
The remaining binding at 10 µM was 82%.

What about the remaining binding at 10 µM [6] of the same molecule?
Its remaining binding at 10 µM is 88%.

What about the remaining binding at 10 µM [7] of the same molecule?
Its remaining binding at 10 µM is 95%.

And the remaining binding at 10 µM [8]?
The remaining binding at 10 µM was 93%.

And the remaining binding at 10 µM [9]?
The remaining binding at 10 µM was 100%.

And the remaining binding at 10 µM [10]?
Its remaining binding at 10 µM is 89%.

What about the remaining binding at 10 µM [11] of the same molecule?
The remaining binding at 10 µM was 89%.

What about the remaining binding at 10 µM [12] of the same molecule?
The remaining binding at 10 µM was 83%.

And the fraction unbound [13]?
Its fraction unbound is 0.07.

And the remaining binding at 10 µM [14]?
The remaining binding at 10 µM was 100%.

What about the “increase in total liver CoA” value ([15]; 30 mg/kg PZ-2891 alone, oral gavage, 5 doses at 12 h intervals) of the same molecule?
The value was 50%.

And the “increase in liver CoA levels” value ([15]; 30 mg/kg PZ-2891 plus 200 mg/kg pantothenate, oral gavage, 5 doses at 12 h intervals)?
Its value is 100%.

What about the “muscle CoA levels” value ([15]; 112 ppm PZ-2891 in chow, 1 week) of the same molecule?
The value was “not elevated”.

What about the “CoA levels in tissues, 1 week chow” value ([15]; 112 ppm PZ-2891 in chow, 1000 ppm pantothenate, 1 week) of the same molecule?
Its value is “elevated in liver, brain, and to a lesser extent, heart”.

What about the “total CoA in liver, forebrain and hindbrain” value ([15]; male and female mice, 5 oral doses every 12 h plus 100 mg/kg pantothenate) of the same molecule?
The value was “dose-dependent increase in total CoA”.

And the “weights or behavior of treated animals” value ([15]; one-month treatment in diet)?
The value was “no difference in the weights or behavior”.

What about the “liver and brain CoA, 4 weeks diet” value ([15]; series of PZ-2891 doses in diet, 1000 ppm pantothenate, 4 weeks) of the same molecule?
The value was “significantly elevated”.

And the remaining binding at 10 µM [16]?
Its remaining binding at 10 µM is 64%.

And the remaining binding at 10 µM [17]?
Its remaining binding at 10 µM is 94%.

And the remaining binding at 10 µM [18]?
The remaining binding at 10 µM was 96%.

And the remaining binding at 10 µM [19]?
Its remaining binding at 10 µM is 66%.

What about the remaining binding at 10 µM [20] of the same molecule?
The remaining binding at 10 µM was 92%.

What about the remaining binding at 10 µM [21] of the same molecule?
The remaining binding at 10 µM was 100%.

And the remaining binding at 10 µM [22]?
Its remaining binding at 10 µM is 52%.

What about the remaining binding at 10 µM [23] of the same molecule?
The remaining binding at 10 µM was 74%.

What about the remaining binding at 10 µM [24] of the same molecule?
The remaining binding at 10 µM was 88%.

And the remaining binding at 10 µM [25]?
Its remaining binding at 10 µM is 95%.

And the remaining binding at 10 µM [26]?
The remaining binding at 10 µM was 72%.

What about the remaining binding at 10 µM [27] of the same molecule?
Its remaining binding at 10 µM is 88%.

And the remaining binding at 10 µM [28]?
The remaining binding at 10 µM was 88%.

What about the remaining binding at 10 µM [29] of the same molecule?
The remaining binding at 10 µM was 80%.

And the remaining binding at 10 µM [30]?
Its remaining binding at 10 µM is 91%.

What about the remaining binding at 10 µM [31] of the same molecule?
The remaining binding at 10 µM was 96%.

And the remaining binding at 10 µM [32]?
The remaining binding at 10 µM was 92%.

What about the remaining binding at 10 µM [33] of the same molecule?
Its remaining binding at 10 µM is 78%.
